Assay results: patent publication US11040036B2, “Pyruvate kinase activators for use in treating blood disorders” (Agios Pharmaceuticals, Inc., priority 2017, dated 2021)

Key:
PKR R510Q = PKR R510Q (Homo sapiens, UniProt P30613, R510Q); assay: PKR mutant assay (AC50), PKR R510Q; assay type: biochemical; details: PKR R510Q mutant enzyme; for AC50: read-out: PK R510Q AC50
Procedure: (§1) Example 11. PKR Mutant Assay
(§2) PKR or PKR mutant enzyme solution was diluted into a reaction mix, which contains 1× buffer (100 mM KCl, 50 mM Tris pH 7.5, 5 mM MgCl2) as well as PEP (cont depends on enzyme), 180 μM NADH, 0.5 units LDH, 1 mM DTT, 0.03% BSA; final assay concentrations after 1.11 fold dilution are indicated.
(§3) 2 μL of test compound was added into wells first, and then 180 μL reaction mix was added.
(§4) Reactions mixture with test compound was assembled except for ADP, and plates were stored for 60 minutes at room temperature.
(§5) 20 uL ADP was added to start reaction at room temperature and reaction progress was measured as changes in absorbance at 340 nm wavelength at room temperature.
(§6) Test Compound Preparation:
(§7) Test compound stock was made at 100× concentration in 100% DMSO (10 mM)
(§8) 1 to 3 dilutions were made for 11 points (i.e. 50 μl of first concentration added to 100 μl 100% DMSO to yield 3.33 mM, 50 μl of this added to 100 μl DMSO to yield 1.11 mM, and so forth) • 1 to 100 dilution into assay (2 μl in 200 μl) yielded starting concentration of 100 μM, decreasing 3 fold for 11 points.
(§9) Assay Buffer: 100 mM KCl, 50 mM Tris 7.5, 5 mM MgCl2, 1 ruM DTT, 0.03% BSA
(§10) Reaction Mixture: PKR mutant enzyme: 40-400 ng/well; ADP: 0.2-1.65 mM; PEP: 0.1-0.5 mM; NADH:180 μM; LDH: 0.5 units (Sigma #59023); DTT: 1 mM; BSA: 0.03%.

PKR K410E = PKR K410E (Homo sapiens, UniProt P30613, K410E); assay: PKR mutant assay (AC50), PKR K410E; assay type: biochemical; details: PKR K410E mutant enzyme
Chain of PKR K410E (P30613 whole entry K410E): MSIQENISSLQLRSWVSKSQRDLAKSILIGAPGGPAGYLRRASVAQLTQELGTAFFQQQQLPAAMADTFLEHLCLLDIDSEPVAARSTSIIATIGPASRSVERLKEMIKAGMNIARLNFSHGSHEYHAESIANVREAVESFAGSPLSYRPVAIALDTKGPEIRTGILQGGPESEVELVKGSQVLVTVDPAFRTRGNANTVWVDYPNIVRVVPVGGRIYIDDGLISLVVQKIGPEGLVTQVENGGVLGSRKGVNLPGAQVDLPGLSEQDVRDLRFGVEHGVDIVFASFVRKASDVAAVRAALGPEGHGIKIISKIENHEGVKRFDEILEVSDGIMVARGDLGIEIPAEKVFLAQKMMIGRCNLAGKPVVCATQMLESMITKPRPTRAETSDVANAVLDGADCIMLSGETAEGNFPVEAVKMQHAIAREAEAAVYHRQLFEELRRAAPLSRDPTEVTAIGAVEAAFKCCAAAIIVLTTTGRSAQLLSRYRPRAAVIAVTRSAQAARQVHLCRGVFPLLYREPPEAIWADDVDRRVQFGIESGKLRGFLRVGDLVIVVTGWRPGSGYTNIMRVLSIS
Procedure: as §1, §2, §3, §4, §5, §6, §7, §8, §9, §10

wild type PKR [1] = molecular target: T1, wild type PKR (Homo sapiens, UniProt P30613); assay: Cell based ATP assay in purified red blood cells; design: endogenous in cells; host or cells: purified red blood cells from blood of healthy volunteers; details: RBCs, overnight at 37° C., ATP levels by Cell-Titer-Glo
T1 sequence (P30613 whole entry): as the sequence (P30613 whole entry K410E) above, with E410K counted along it
Procedure: Example 16. Red Blood Cell (RBC) Purification
Fresh blood drawn from healthy volunteers into K2EDTA tubes was collected. Whole blood was pelleted by spinning at 500 g for 10 minutes. Cut transfusion bag port off of Purecell leukocyte reduction neofilter (Fisher NCO267633) one (1) inch above filter. Attach a 10 ml syringe barrel to the remaining cut tubing attached to neofilter. The plasma layer was removed from the pellet of the whole blood and the pellet was resuspended in 2× volume of phosphate buffered saline (PBS). Transfer 9 ml re-suspended blood cell pellet to prepared 10 ml syringe that is attached to the neofilter. Allow whole blood to gravity flow through filter until all fluid runs through upper tubing into filter disc. Add plunger to the syringe, remove syringe from clamp and invert the filter, then plunge air through the syringe filter system. Using a new 5 ml syringe, remove filtered RBCs from the bag by the syringe port and transfer purified RBCs to a 5 ml snap cap tube that has been incubated on ice. Spin 5 ml snap cap tube at 500 g for 10 minutes at 15 C, aspirate supernatant and resuspend in AGAM (1×PBS, 1% glucose, 170 mg/L adenine, 5.25 g/L mannitol) at a density of 4×10^9 cells/mL.
Example 17. Cell Based ATP Assay
For cell based ATP assays, the compound as described herein was prepared in 100% DMSO as a 10 mM stock. Serial dilutions (1:4) were performed in 96-well V-bottom storage plate and then added 1:100 to 96-well V-bottom plates containing AGAM. RBCs were diluted in AGAM media to a density of 1×10^7 cells/mL before added 90 μL/well to black clear bottom assay plates (final compound concentration at 0.1% DMSO concentration). Assay plates were sealed using aluminum foil seals and incubated overnight at 37° C. in a humidified chamber. ATP levels were read out using Cell-Titer-Glo (Promega).

wild type PKR [2] = molecular target: T1, wild type PKR; assay: PKR mutant assay (AC50), wild type PKR; assay type: biochemical; details: wild type PKR enzyme; for AC50: read-out: PKR WT AC50
Procedure: as §1, §2, §3, §4, §5, §6, §7, §8, §9, §10

Chain of PKR R510Q (P30613 whole entry R510Q): as the sequence (P30613 whole entry K410E) above, with E410K, R510Q counted along it

Row | AC50 (PKR R510Q) | AC50 (PKR K410E) | AC50 (wild type PKR [1]) | AC50 (wild type PKR [2]) | PK R510Q AC50 (PKR R510Q) | PKR K410E AC50 (PKR K410E) | Cell based ATP assay AC50 (wild type PKR [1]) | PKR WT AC50 (wild type PKR [2]) | Structure (SMILES)
1 | < 0.3 µM | < 0.3 µM | ≤ 1 µM | < 0.3 µM |  |  |  |  | Cn1c2nc(Cc3cc[nH]n3)sc2c2cnn(Cc3csc(C(N)=O)n3)c(=O)c21
2 | < 0.3 µM | < 0.3 µM | ≤ 1 µM | < 0.3 µM |  |  |  |  | Cn1c2nc(Cc3cc[nH]n3)sc2c2cnn(Cc3cncs3)c(=O)c21
3 | < 0.3 µM | < 0.3 µM | ≤ 1 µM | < 0.3 µM |  |  |  |  | Cc1cccc(Cn2ncc3c4sc(Cc5cc[nH]n5)nc4n(C)c3c2=O)n1
4 | < 0.3 µM | < 0.3 µM | ≤ 1 µM | < 0.3 µM |  |  |  |  | Cn1c2nc(Cc3cccc(N)n3)sc2c2cnn(Cc3cc[nH]n3)c(=O)c21
5 | < 0.3 µM | < 0.3 µM | ≤ 1 µM | < 0.3 µM |  |  |  |  | Cn1c2nc(Cc3cccc(N)n3)sc2c2cnn(Cc3cscn3)c(=O)c21
6 | < 0.3 µM | < 0.3 µM | ≤ 1 µM | < 0.3 µM |  |  |  |  | Cn1c2nc(Cc3cc[nH]n3)sc2c2cnn(Cc3c[nH]c(N)n3)c(=O)c21
7 | < 0.3 µM | < 0.3 µM | ≤ 1 µM | < 0.3 µM |  |  |  |  | Cn1c2nc(Cc3cc[nH]n3)sc2c2cnn(Cc3[nH]ncc3Cl)c(=O)c21
8 | < 0.3 µM | < 0.3 µM | ≤ 1 µM | < 0.3 µM |  |  |  |  | Cn1c2nc(Cc3c[nH]nn3)sc2c2cnn(Cc3csc(N)n3)c(=O)c21
9 | < 0.3 µM | < 0.3 µM | ≤ 1 µM | < 0.3 µM |  |  |  |  | Cn1c2nc(Cc3c[nH]nn3)sc2c2cnn(Cc3c[nH]nn3)c(=O)c21
10 | < 0.3 µM | < 0.3 µM | ≤ 1 µM | < 0.3 µM |  |  |  |  | Cn1c2nc(Cc3ccccn3)sc2c2cnn(Cc3cccc(N)n3)c(=O)c21
11 | < 0.3 µM | < 0.3 µM | ≤ 1 µM | < 0.3 µM |  |  |  |  | Cn1c2nc(Cc3csc(CO)n3)sc2c2cnn(Cc3cn[nH]n3)c(=O)c21
12 | < 0.3 µM | < 0.3 µM | ≤ 1 µM | < 0.3 µM |  |  |  |  | Cn1c2nc(C(O)c3cc[nH]n3)sc2c2cnn(Cc3cc[nH]n3)c(=O)c21 (stereo not drawn)
13 | < 0.3 µM | < 0.3 µM | ≤ 1 µM | < 0.3 µM |  |  |  |  | Cn1c2nc(Cc3c[nH]nn3)sc2c2cnn(Cc3cccc(N)n3)c(=O)c21
14 | < 0.3 µM | < 0.3 µM | ≤ 1 µM | < 0.3 µM |  |  |  |  | Cn1c2nc(Cc3cscn3)sc2c2cnn(Cc3c[nH]nn3)c(=O)c21
15 | < 0.3 µM | < 0.3 µM | ≤ 1 µM | < 0.3 µM |  |  |  |  | Cn1c2nc(Cc3cscn3)sc2c2cnn(Cc3cccc(N)n3)c(=O)c21
16 | < 0.3 µM | < 0.3 µM | ≤ 1 µM | < 0.3 µM |  |  |  |  | Cn1c2nc(Cc3csc(CO)n3)sc2c2cnn(Cc3cccc(N)n3)c(=O)c21
17 | < 0.3 µM | < 0.3 µM | ≤ 1 µM | < 0.3 µM |  |  |  |  | Cn1c2nc(Cc3cc[nH]n3)sc2c2cnn(Cc3n[nH]cc3F)c(=O)c21
18 | < 0.3 µM | < 0.3 µM | ≤ 1 µM | < 0.3 µM |  |  |  |  | Cn1c2nc(Cn3cncn3)sc2c2cnn(Cc3cc[nH]n3)c(=O)c21
19 | 0.301 to 0.8 µM | < 0.3 µM | ≤ 1 µM | < 0.3 µM |  |  |  |  | Cn1c2nc(Cn3ccnc3)sc2c2cnn(Cc3cc[nH]n3)c(=O)c21
20 | > 0.8 µM | > 0.8 µM | > 1 µM | > 0.8 µM |  |  |  |  | Cn1c2nc(Cn3cnnc3)sc2c2cnn(Cc3cc[nH]n3)c(=O)c21
21 | < 0.3 µM | < 0.3 µM | ≤ 1 µM | < 0.3 µM |  |  |  |  | Cn1c2nc(Cc3cc[nH]n3)sc2c2cnn(Cc3ccc(F)c(Br)n3)c(=O)c21

Row | AC50 (PKR R510Q) | AC50 (PKR K410E) | AC50 (wild type PKR [1]) | AC50 (wild type PKR [2]) | PK R510Q AC50 (PKR R510Q) | PKR K410E AC50 (PKR K410E) | Cell based ATP assay AC50 (wild type PKR [1]) | PKR WT AC50 (wild type PKR [2]) | Structure (SMILES)
22 | < 0.3 µM | < 0.3 µM | ≤ 1 µM | < 0.3 µM |  |  |  |  | Cn1c2nc(Cc3cc[nH]n3)sc2c2cnn(Cc3nc(N)ccc3F)c(=O)c21
23 | < 0.3 µM | < 0.3 µM | ≤ 1 µM | < 0.3 µM |  |  |  |  | CN(C)c1cccc(Cn2ncc3c4sc(Cc5cc[nH]n5)nc4n(C)c3c2=O)n1
24 | < 0.3 µM | < 0.3 µM | ≤ 1 µM | < 0.3 µM |  |  |  |  | CN(C)c1cccc(Cc2nc3c(s2)c2cnn(Cc4cc[nH]n4)c(=O)c2n3C)n1
25 | < 0.3 µM | < 0.3 µM | ≤ 1 µM | < 0.3 µM |  |  |  |  | Cn1c2nc(Cc3ncsc3Cl)sc2c2cnn(Cc3c[nH]nn3)c(=O)c21
26 | < 0.3 µM | < 0.3 µM | ≤ 1 µM | < 0.3 µM |  |  |  |  | Cn1c2nc(Cc3ncsc3Cl)sc2c2cnn(Cc3cc[nH]n3)c(=O)c21
27 | < 0.3 µM | < 0.3 µM | ≤ 1 µM | < 0.3 µM |  |  |  |  | Cn1c2nc(Cn3cccn3)sc2c2cnn(Cc3cc[nH]n3)c(=O)c21
28 | < 0.3 µM | < 0.3 µM | ≤ 1 µM | < 0.3 µM |  |  |  |  | Cn1c2nc([C@H](O)c3cc[nH]n3)sc2c2cnn(Cc3cc[nH]n3)c(=O)c21
29 | < 0.3 µM | < 0.3 µM | ≤ 1 µM | < 0.3 µM |  |  |  |  | Cn1c2nc([C@@H](O)c3cc[nH]n3)sc2c2cnn(Cc3cc[nH]n3)c(=O)c21
30 | < 0.3 µM | < 0.3 µM | ≤ 1 µM | < 0.3 µM |  |  |  |  | Cn1c2nc(Cc3cc[nH]n3)sc2c2cnn(Cc3cc(Cl)[nH]n3)c(=O)c21
31 | < 0.3 µM | < 0.3 µM | ≤ 1 µM | < 0.3 µM |  |  |  |  | COc1ccc(Cn2ncc3c4sc(Cc5cc[nH]n5)nc4n(C)c3c2=O)nc1N
32 | < 0.3 µM | < 0.3 µM | ≤ 1 µM | < 0.3 µM |  |  |  |  | Cn1c2nc(Cc3cc[nH]n3)sc2c2cnn(Cc3ccsn3)c(=O)c21
33 | > 0.8 µM | > 0.8 µM | > 1 µM | > 0.8 µM |  |  |  |  | Cn1nncc1Cn1ncc2c3sc(Cc4cc[nH]n4)nc3n(C)c2c1=O
34 | < 0.3 µM | < 0.3 µM | ≤ 1 µM | < 0.3 µM |  |  |  |  | Cn1c2nc(Cc3nc(N)ccc3F)sc2c2cnn(Cc3cc[nH]n3)c(=O)c21
35 | < 0.3 µM | < 0.3 µM | ≤ 1 µM | < 0.3 µM |  |  |  |  | Cn1ncc(Cn2ncc3c4sc(Cc5cc[nH]n5)nc4n(C)c3c2=O)n1
36 | < 0.3 µM | < 0.3 µM | ≤ 1 µM | < 0.3 µM |  |  |  |  | Cn1ccc(Cn2ncc3c4sc(Cc5cccc(N)n5)nc4n(C)c3c2=O)n1
37 | < 0.3 µM | < 0.3 µM | ≤ 1 µM | < 0.3 µM |  |  |  |  | Cn1ccc(Cc2nc3c(s2)c2cnn(Cc4ccn[nH]4)c(=O)c2n3C)n1
38 | < 0.3 µM | < 0.3 µM | ≤ 1 µM | < 0.3 µM |  |  |  |  | Cc1scnc1Cc1nc2c(s1)c1cnn(Cc3ccn[nH]3)c(=O)c1n2C
39 | < 0.3 µM | < 0.3 µM | ≤ 1 µM | < 0.3 µM |  |  |  |  | Cn1c2nc(Cc3nc(N)sc3F)sc2c2cnn(Cc3cc[nH]n3)c(=O)c21
40 | < 0.3 µM | < 0.3 µM | ≤ 1 µM | < 0.3 µM |  |  |  |  | Cn1c2nc(Cn3ccc([N+](=O)[O-])n3)sc2c2cnn(Cc3cc[nH]n3)c(=O)c21
41 | < 0.3 µM | < 0.3 µM | ≤ 1 µM | < 0.3 µM |  |  |  |  | Cn1c2nc(Cn3ccnn3)sc2c2cnn(Cc3cc[nH]n3)c(=O)c21
42 |  |  |  |  | No Fit | No Fit | No Fit | No Fit | Cn1c2nc(Cn3cncn3)sc2c2cnn(Cc3n[nH]c(=O)[nH]3)c(=O)c21
